Measurements published in US20250032629A1, “NOVEL NUCLEOLIN-BINDING PEPTIDE AND USE THEREOF” (ANYGEN CO., LTD., priority 2020, published 2025).
Ends that are not written are not given here.

Legend:
MDA-MB-231-luc cells = assay: Tumor suppression in breast cancer xenograft model; assay type: in vivo, NPG mice; details: for average tumor volume: tail vein
Protocol: FIG. 14B is a schematic representation of the experimental protocol. Here, anesthetized 6-week-old […] NPG mice were inoculated with a 1:1 mix of Matrigel and 1×10^6 MDA-MB-231-luc cells into the mammary fat pad. […] Nuclei were stained with DAPI (blue), and the scale bar is 50 μm. Bar graphs represent the mean±SD, and statistical analyses were performed by one-way ANOVA with Dunnett's multiple comparison. *, **, and *** indicate P<0.05, P<0.01, and P<0.001, respectively. […]
All animal experiments were performed in accordance with IACUC guidelines (GIST-2019-040). For tumorigenesis experiments, anesthetized 6-week-old female NOD-scid Il2rg^−/− mice (NPG™, VITALSTAR) were inoculated in the mammary fat pad with 1×10^6 MDA-MB-231-luc cells in a volume of 100 μl (n=5˜6 for each group). After tumor cell inoculation, when the tumor volume reached approximately 100 mm^3, the mice were randomly divided into the following five groups: (i) control, (ii) low-dose paclitaxel (2 mg/kg), (iii) high-dose paclitaxel (10 mg/kg), (iv) AGM-330 (16.68 mg/kg or 8.34 mg/kg), and (v) AGM-330-PTX (19.05 mg/kg or 10.71 mg/kg). The tumor size was measured twice a week, and the tumor volume was calculated with the following formula:
For the bioluminescent imaging experiment, D-luciferin (150 mg/kg; PerkinElmer) was intraperitoneally injected into each mouse, and an IVIS 100 imaging system (Xenogen, Corporation, Alameda, CA) was used for bioluminescent monitoring. Mice were anesthetized with vaporized isoflurane (BK Pharm, Ilsan, Korea) and placed in an imaging chamber. After 10 min, each animal was imaged with an exposure time of 1 min. All bioluminescent image data were provided by Living Image software (version 4.5.2, PerkinElmer). Photons detected from tumors were converted to average radiance values (photon/see/cm^2/sr), which are quantitative data obtained from a region of intensity (ROI) and include the photons emitted by bioluminescent cells from an assigned rectangular area over the whole body of each mouse.
Following in vitro proliferation analysis on cancer lines, the present inventors investigated whether AGM-330t-PTX could be a potential therapeutic agent in vivo. The present inventors inoculated MDA-MB-231-luc cells into the mammary fat pad of NPG mice. After the subcutaneous tumors grew to 100 mm^3, comparative efficacy studies were performed by dividing the animals into five groups (n=5/group) treated with vehicle (PBS), AGM-330t (16.68 mg/kg), PTX (2 or 10 mg/kg, respectively) or AGM-330t-PTX (19.05 mg/kg) twice a week by tail vein injection (FIG. 14B). Tumor growth was monitored by measuring volumes twice a week with a caliber rule over the course of 3 weeks.
The present inventors also performed histological staining of the excised tumors, and an independent pathologist evaluated the slides.

MCF-10A cells = assay: Cell proliferation assay (WST-1), AGM-330-PTX; assay type: cell-based; details: Homo sapiens, 48 h
MCF-10A and CCD-18Co [1] = assay: FACS binding of AGM-330-FITC to normal cells; assay type: cell-based, human; details: 2 h of incubation, versus cancer cells
[2] = test system: MCF-7, MDA-MB-231, HT-29, and HCT-116; assay: FACS binding of AGM-330-FITC to cancer cells; assay type: cell-based, human; details: 2 h, 37° C., serum-free medium
NCL = NCL (Homo sapiens, UniProt P19338); assay: Double-immunofluorescence confocal microscopy with anti-NCL antibody; assay type: cell-based; set-up: GFP-NCL (residues 1-710); expressed in transfected cells; host or cells: HEK293T; details: 5 μmol/l, 1 h of incubation
Protocol: FIGS. 11A and 11B show the results of fluorescence confocal microscopy of multiple cancer and normal cells. […] Merge represents AGM-330-FITC, NCL, and nuclear staining by DAPI. AGM-330-FITC represents FITC-conjugated AGM-330. Scale bar is 20 μm. […] Here, plasma membrane, cytosol and nuclear NCL were immunoblotted using anti-NCL antibody. […] Here, MDA-MB-231 cells were transfected for 48 hours. Then, 5 μmol/l of AGM-330-FITC was added for 2 hours. Cells were washed twice with PBS and fixed with 4% paraformaldehyde. Fluorescence was observed using a fluorescent confocal microscope. AGM-330-FITC is FITC-conjugated AGM-330, and the scale bar is 20 μm. […] FIGS. 11G and 11H show in vivo fluorescence images of mice 30 min, 1 h, 6 h, and 24 h after intravenous injections of 10 nmol free Alexa680 (FIG. 11G) or 10 nmol AGM-330-Alexa680 (FIG. 11H) in MDA-MB-231-luc tumor-bearing mice. Here, fluorescence images of the major organs including the heart, spleen, lung, brain, liver, kidney, and tumors were removed from mice with different treatments. […] FIGS. 11I and 11J are graphs showing the average radiant efficiency of Alexa680-associated fluorescence from live imaging of three animals in tumors (FIG. 11I) and different organs (FIG. 11J).
The present inventors evaluated the specificity of AGM-330 to NCL with cell binding assays against different cell lines using fluorescence microscopy. […]

MCF-10A and CCD-18Co [3] = assay: Cell-growth-on-bead assay, normal cell lines; assay type: cell-based, human
Protocol: (§1) Here, multiple breast and colorectal cancer cells and normal breast and colorectal cells were re-suspended at 10^6 cells/ml and incubated with beads. All experiments were repeated 3 times, and the scale bar is 200 μm. […] Here, nuclei were stained with DAPI (blue), and scale bar is 50 μm. […] Here, a whole-cell binding assay was performed to determine the cell binding of AGM-330, and the scale bar is 200 μm. […] Fmoc=9-fluorenylmethoxycarbonyl, DMF=dimethylformamide. […] Here, bar graphs represent the mean±SD, and statistical analyses were performed by one-way ANOVA with Dunnett's multiple comparison. *, **, and *** indicate P<0.05, P<0.01, and P<0.001, respectively.
(§2) The beads were washed extensively with double-distilled water and phosphate-buffered saline (PBS; Welgene Inc., Korea) before screening. Cancer cells and normal cells were detached from culture dishes with trypsin/EDTA (Gibco), washed with their corresponding culture medium, resuspended at 10^6 cells/ml, and incubated with OBOC beads in Petri dishes in a humidified CO2 incubator at 37° C. with shaking (60 rpm). Beads bound by cells appeared under a microscope as rosettes with a central bead covered by one or more layers of cells. The positive beads were picked by pipette under an inverted microscope, treated with guanidine-HCL (8 M, 20 min) to remove cells and proteins on the bead surface, and subjected to a second round of screening with normal breast epithelial cells to eliminate false positive binding. Only beads with cell binding at both rounds were sent for peptide sequencing.
(§3) To identify a novel cancer-specific peptide ligand, the present inventors synthesized about 2, 600,000 libraries using 5 g of Tentagel MB NH2 resin (200 μm, 520,000 beads/g; FIG. 3).

MDA-MB-231-luc tumor = assay: In vivo near-infrared fluorescence imaging in xenograft model of human breast cancer; set-up: species or system mice; details: mouse
Protocol: (§4) FIGS. 11A and 11B show the results of fluorescence confocal microscopy of multiple cancer and normal cells. Here, MCF-10A, MCF-7, MDA-MB-231 (FIG. 11A) or CCD-18Co, HT-29, and HCT-116 (FIG. 11B) cells were incubated with 5 μmol/l AGM-330-FITC for 30 min at 37° C. […] Cells were then fixed with 4% paraformaldehyde, and the nuclei were stained with DAPI. Merge represents AGM-330-FITC, NCL, and nuclear staining by DAPI. AGM-330-FITC represents FITC-conjugated AGM-330. Scale bar is 20 μm. […] Here, plasma membrane, cytosol and nuclear NCL were immunoblotted using anti-NCL antibody. […] Here, MDA-MB-231 cells were transfected for 48 hours. Then, 5 μmol/l of AGM-330-FITC was added for 2 hours. […] Fluorescence was observed using a fluorescent confocal microscope. […] FIGS. 11G and 11H show in vivo fluorescence images of mice 30 min, 1 h, 6 h, and 24 h after intravenous injections of 10 nmol free Alexa680 (FIG. 11G) or 10 nmol AGM-330-Alexa680 (FIG. 11H) in MDA-MB-231-luc tumor-bearing mice. Here, fluorescence images of the major organs including the heart, spleen, lung, brain, liver, kidney, and tumors were removed from mice with different treatments. […] FIGS. 11I and 11J are graphs showing the average radiant efficiency of Alexa680-associated fluorescence from live imaging of three animals in tumors (FIG. 11I) and different organs (FIG. 11J). […]

MDA-MB-231 = assay: Whole-cell binding (cell-growth-on-bead) assay of screened peptide beads; assay type: cell-based, human
Protocol: as §1, §2, §3

MCF-10A = assay: as above; assay type: cell-based, human
Protocol: as §1, §2, §3

MDA-MB-231 cells [4] = assay: AGM-330 binding to cells after NCL knockdown (fluorescence confocal microscopy); assay type: cell-based, human
Protocol: as §4

MDA-MB-231 cells [5] = assay: Confocal imaging of FITC-labeled peptides; assay type: cell-based, human; details: compared with AGM-331 and AGM-332
[6] = test system: human breast cancer cell lines (MCF7 and MDA-MB-231) and human colorectal cancer cell lines (HT-29 and HCT-116); assay: Cell-growth-on-bead assay with resynthesized AGM-330 beads; assay type: cell-based; details: MCF7, MDA-MB-231, HT-29, HCT-116
Protocol: as §1
The beads were washed extensively with double-distilled water and phosphate-buffered saline (PBS; Welgene Inc., Korea) before screening. Cancer cells and normal cells were detached from culture dishes with trypsin/EDTA (Gibco), washed with their corresponding culture medium, resuspended at 10^6 cells/ml, and incubated with OBOC beads in Petri dishes in a humidified CO2 incubator at 37° C. with shaking (60 rpm). Beads bound by cells appeared under a microscope as rosettes with a central bead covered by one or more layers of cells. […]

NCL, sequence (P19338 whole entry, the tested form may be a part): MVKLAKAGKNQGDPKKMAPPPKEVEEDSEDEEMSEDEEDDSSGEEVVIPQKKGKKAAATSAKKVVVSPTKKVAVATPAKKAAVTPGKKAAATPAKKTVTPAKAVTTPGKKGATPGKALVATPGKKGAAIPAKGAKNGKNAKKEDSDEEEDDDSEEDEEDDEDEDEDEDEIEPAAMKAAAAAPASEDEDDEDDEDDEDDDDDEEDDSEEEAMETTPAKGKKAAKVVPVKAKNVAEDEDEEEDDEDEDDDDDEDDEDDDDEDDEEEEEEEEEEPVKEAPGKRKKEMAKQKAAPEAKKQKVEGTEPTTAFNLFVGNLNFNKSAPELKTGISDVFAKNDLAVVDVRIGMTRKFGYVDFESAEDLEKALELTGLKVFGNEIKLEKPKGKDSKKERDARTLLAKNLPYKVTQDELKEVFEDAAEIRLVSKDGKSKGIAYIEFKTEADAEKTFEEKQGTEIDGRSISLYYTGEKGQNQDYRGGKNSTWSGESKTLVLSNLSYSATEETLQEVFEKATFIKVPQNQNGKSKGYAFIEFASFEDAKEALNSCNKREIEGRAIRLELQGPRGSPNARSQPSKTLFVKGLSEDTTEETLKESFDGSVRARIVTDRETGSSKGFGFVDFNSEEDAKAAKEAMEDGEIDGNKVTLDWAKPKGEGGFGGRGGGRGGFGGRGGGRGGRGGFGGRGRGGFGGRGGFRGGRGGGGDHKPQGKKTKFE

Compound: CC(=O)O[C@H]1C(=O)[C@@]2(C)[C@H]([C@H](OC(=O)c3ccccc3)[C@]3(O)C[C@H](OC(=O)[C@H](O)[C@@H](NC(=O)c4ccccc4)c4ccccc4)C(C)=C1C3(C)C)[C@]1(OC(C)=O)CO[C@@H]1C[C@@H]2O [PTX, Paclitaxel, reference compound]
- average tumor volume (MDA-MB-231-luc cells; 2 mg/kg twice a week, n=5): 1671±199 mm^3
- final average tumor weight (MDA-MB-231-luc cells; 2 mg/kg, n=5): 2.1 ± 0.4 g
- average tumor volume (MDA-MB-231-luc cells; 10 mg/kg twice a week, day 21, n=5): 988±78 mm^3
- final average tumor weight (MDA-MB-231-luc cells; 10 mg/kg, n=5): 1.5 ± 0.1 g
- IC50 (MCF-10A cells): 22.1 µM

Compound: AGM-330-FITC (RHGAMVYLK; also: FITC-labelled (site not given here))
- binding to normal cells (MFI) (MCF-10A and CCD-18Co [1]): significant decrease in binding
- cancer cell binding (increase in MFI relative to untreated cells) [2]: significant cancer cell binding
- colocalization with NCL staining (NCL): overlap between NCL and AGM-330-FITC

Compound: RHGAMVYLK [AGM-330, name also used for its PEGylated MAP dendrimeric forms]
- binding to normal cell lines MCF-10A and CCD-18Co (MCF-10A and CCD-18Co [3]): bound either very weakly or not at all
- distribution in tumor tissue versus normal organs (NIRF images) (MDA-MB-231-luc tumor): mainly accumulated throughout the tumor tissue rather than normal organs
- difference in the average tumor volume versus vehicle (PBS)-treated mice (MDA-MB-231-luc cells; 16.68 mg/kg): no significant difference
- binding to MDA-MB-231 (MDA-MB-231): strong preferential binding
- binding to the human normal breast cell line MCF-10A (MCF-10A): no or only weak binding
- fluorescence signal (AGM-330 binding) in siNCL1-treated cells (MDA-MB-231 cells [4]): little or no fluorescence signal
- fluorescence signals of FITC-labeled peptide on MDA-MB-231 cells (MDA-MB-231 cells [5]): strongest fluorescence signals
- time until beads were fully covered by cancer cell lines [6]: ≤ 15 min
